According to patent US20250367166A1, “NEXT GENERATION DIPROVOCIMS THAT ACTIVATE THE INNATE AND ADAPTIVE IMMUNE RESPONSE” (The Scripps Research Institute, priority 2022, published 2025):
Each block holds one compound with its values, some of them ahead of it.

Key:
TLR1/TLR2 [1] = molecular target: TLR1/TLR2 (Homo sapiens, UniProt O60603+Q15399); test: TNF-α release from PMA-differentiated human THP-1 cells (ELISA); settings: for Emax: THP-1, 4 h, read-out: Efficacy (magnitude) of response versus diprovocim-1 (100%), THP-1; for EC50: read-out: EC50 (nM) (THP-1): EC50 TNF-α release from human THP-1 cells, Table 6;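 on all read-outs here: cells exposed to graded compound concentrations for 4 h, TNF-α quantified in supernatant, LPS as positive and DMSO as negative control, values are duplicate means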
TLR1/TLR2 (Homo sapiens, UniProt O60603+Q15399), sequence (Q15399 25-786): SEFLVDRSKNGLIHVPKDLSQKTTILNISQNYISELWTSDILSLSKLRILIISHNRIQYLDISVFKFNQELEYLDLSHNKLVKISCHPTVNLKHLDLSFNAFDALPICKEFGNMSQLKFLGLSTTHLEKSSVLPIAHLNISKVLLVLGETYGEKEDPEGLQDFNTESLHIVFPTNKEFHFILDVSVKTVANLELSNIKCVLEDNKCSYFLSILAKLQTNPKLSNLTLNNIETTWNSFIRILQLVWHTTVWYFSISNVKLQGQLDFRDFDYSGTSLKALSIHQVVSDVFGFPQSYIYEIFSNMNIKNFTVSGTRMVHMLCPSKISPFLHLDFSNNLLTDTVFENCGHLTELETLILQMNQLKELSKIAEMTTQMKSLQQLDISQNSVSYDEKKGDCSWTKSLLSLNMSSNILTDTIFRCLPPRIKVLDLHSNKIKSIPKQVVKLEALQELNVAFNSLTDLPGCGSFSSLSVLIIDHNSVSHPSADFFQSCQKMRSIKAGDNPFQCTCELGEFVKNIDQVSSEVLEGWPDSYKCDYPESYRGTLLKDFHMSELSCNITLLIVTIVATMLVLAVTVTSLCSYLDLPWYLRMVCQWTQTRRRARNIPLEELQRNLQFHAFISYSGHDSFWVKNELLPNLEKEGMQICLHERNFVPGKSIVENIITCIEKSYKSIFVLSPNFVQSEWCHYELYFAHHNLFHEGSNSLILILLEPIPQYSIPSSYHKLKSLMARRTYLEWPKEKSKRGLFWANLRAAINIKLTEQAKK
TLR1/TLR2 (Homo sapiens, UniProt O60603+Q15399), sequence (O60603 21-784): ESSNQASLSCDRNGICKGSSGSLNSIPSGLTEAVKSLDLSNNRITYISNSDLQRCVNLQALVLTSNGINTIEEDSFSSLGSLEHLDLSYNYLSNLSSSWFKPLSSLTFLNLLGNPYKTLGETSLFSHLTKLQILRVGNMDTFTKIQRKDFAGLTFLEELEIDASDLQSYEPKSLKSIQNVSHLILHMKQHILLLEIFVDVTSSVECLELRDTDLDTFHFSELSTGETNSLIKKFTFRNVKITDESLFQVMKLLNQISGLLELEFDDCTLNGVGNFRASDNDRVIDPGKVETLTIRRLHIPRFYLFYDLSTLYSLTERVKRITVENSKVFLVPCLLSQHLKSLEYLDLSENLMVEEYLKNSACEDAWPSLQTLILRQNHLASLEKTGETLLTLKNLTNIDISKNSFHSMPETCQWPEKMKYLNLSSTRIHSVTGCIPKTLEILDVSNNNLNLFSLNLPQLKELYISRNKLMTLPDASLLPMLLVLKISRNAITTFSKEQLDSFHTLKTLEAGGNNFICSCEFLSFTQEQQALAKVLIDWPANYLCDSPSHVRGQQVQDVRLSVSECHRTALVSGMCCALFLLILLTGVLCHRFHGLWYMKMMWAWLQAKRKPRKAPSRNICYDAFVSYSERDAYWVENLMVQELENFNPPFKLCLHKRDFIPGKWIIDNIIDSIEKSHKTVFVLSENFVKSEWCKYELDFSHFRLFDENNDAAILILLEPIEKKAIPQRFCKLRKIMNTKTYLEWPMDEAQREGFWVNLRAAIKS

TLR1/TLR2 [2] = molecular target: TLR1/TLR2 (Mus musculus, UniProt Q9EPQ1+Q9QUN7); test: TNF-α release from thioglycolate-elicited mouse peritoneal macrophages (ELISA); settings: for Emax: 4 h, read-out: Efficacy (magnitude) of response versus diprovocim-1 (100%), mouse macrophages; for EC50: read-out: EC50 (nM) (mouse): EC50 TNF-α release from mouse macrophages, Table 6
TLR1/TLR2 (Mus musculus, UniProt Q9EPQ1+Q9QUN7), sequence (Q9EPQ1 26-795): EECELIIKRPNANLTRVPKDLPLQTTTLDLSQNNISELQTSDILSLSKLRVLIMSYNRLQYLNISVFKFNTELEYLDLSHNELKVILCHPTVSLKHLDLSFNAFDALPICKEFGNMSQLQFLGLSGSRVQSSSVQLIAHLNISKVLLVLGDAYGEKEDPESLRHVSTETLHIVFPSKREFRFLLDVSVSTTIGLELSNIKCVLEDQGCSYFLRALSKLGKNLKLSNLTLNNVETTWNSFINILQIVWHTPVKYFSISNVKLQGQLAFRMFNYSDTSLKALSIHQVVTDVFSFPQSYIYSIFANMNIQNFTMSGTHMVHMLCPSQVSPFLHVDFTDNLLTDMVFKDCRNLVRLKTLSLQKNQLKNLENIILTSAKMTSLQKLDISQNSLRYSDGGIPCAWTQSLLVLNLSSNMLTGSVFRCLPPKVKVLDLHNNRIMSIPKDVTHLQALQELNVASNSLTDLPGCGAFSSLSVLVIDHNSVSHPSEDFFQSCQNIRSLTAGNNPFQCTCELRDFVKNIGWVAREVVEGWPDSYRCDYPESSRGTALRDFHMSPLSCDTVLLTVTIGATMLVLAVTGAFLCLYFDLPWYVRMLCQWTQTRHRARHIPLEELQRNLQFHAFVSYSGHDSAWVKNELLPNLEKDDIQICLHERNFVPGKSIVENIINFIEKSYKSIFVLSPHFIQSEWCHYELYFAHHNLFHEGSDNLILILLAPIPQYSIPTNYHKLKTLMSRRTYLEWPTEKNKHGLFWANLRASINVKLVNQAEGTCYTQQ
TLR1/TLR2 (Mus musculus, UniProt Q9EPQ1+Q9QUN7), sequence (Q9QUN7 25-784): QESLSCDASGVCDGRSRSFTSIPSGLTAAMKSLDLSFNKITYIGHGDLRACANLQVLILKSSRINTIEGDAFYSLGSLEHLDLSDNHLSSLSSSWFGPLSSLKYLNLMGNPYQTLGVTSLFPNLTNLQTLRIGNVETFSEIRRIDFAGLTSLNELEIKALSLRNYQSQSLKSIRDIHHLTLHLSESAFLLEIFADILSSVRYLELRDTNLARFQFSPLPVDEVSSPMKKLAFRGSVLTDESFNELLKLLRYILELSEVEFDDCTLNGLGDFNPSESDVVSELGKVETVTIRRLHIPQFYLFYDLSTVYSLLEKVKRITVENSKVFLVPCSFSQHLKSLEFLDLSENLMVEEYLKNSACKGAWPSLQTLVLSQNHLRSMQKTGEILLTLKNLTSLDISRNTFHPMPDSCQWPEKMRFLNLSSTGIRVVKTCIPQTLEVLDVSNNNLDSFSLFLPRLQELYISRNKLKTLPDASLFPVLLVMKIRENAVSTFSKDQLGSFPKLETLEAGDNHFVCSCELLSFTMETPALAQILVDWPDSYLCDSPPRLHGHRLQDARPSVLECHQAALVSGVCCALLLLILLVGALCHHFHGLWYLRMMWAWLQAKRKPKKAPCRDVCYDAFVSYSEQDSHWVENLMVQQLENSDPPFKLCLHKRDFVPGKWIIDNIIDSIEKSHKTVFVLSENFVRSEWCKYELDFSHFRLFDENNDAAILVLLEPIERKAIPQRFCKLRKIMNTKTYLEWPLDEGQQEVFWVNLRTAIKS

SMILES: Nc1ccc(C(=O)OCCCCCCCCCCCCNC(=O)[C@@H]2CN(C(=O)c3ccc(C(=O)N4C[C@@H](C(=O)N[C@H]5C[C@@H]5c5ccccc5)[C@H](C(=O)N[C@H]5C[C@@H]5c5ccccc5)C4)cc3)C[C@H]2C(=O)N[C@H]2C[C@@H]2c2ccccc2)cc1 [Compound 74, 12-((3S,4S)-1-(4-((3S,4S)-3,4-Bis(((1S,2R)-2-phenyl-cyclopropyl)carbamoyl)pyrrolidine-1-carbonyl)benzoyl)-4-(((1S,2R)-2-phenylcyclopropyl)carbamoyl)-pyrrolidine-3-carboxamido)-dodecyl 4-aminobenzoate]
Emax (TLR1/TLR2 [1]): 100%
EC50 (TLR1/TLR2 [1]): 0.05 nM
Emax (TLR1/TLR2 [2]): 300%
EC50 (TLR1/TLR2 [2]): 0.67 nM

SMILES: O=C(OCCCCCCCCCCCCNC(=O)[C@@H]1CN(C(=O)c2ccc(C(=O)N3C[C@@H](C(=O)N[C@H]4C[C@@H]4c4ccccc4)[C@H](C(=O)N[C@H]4C[C@@H]4c4ccccc4)C3)cc2)C[C@H]1C(=O)N[C@H]1C[C@@H]1c1ccccc1)c1ccc(O)cc1 [Compound 75, 12-((3S,4S)-1-(4-((3S,4S)-3,4-Bis(((1S,2R)-2-phenylcyclopropyl)carbamoyl)pyrrolidine-1-carbonyl)benzoyl)-4-(((1S,2R)-2-phenyl-cyclopropyl)carbamoyl)pyrrolidine-3-carboxamido)-dodecyl 4-hydroxybenzoate]
Emax (TLR1/TLR2 [1]): 100%
EC50 (TLR1/TLR2 [1]): 1.7 nM
Emax (TLR1/TLR2 [2]): 540%
EC50 (TLR1/TLR2 [2]): 50 nM

SMILES: CC(C)(C)Oc1ccc(C(=O)OCCCCCCCCCCCCNC(=O)[C@@H]2CN(C(=O)c3ccc(C(=O)N4C[C@@H](C(=O)N[C@H]5C[C@@H]5c5ccccc5)[C@H](C(=O)N[C@H]5C[C@@H]5c5ccccc5)C4)cc3)C[C@H]2C(=O)N[C@H]2C[C@@H]2c2ccccc2)cc1 [Compound 76, 12-((3S,4S)-1-(4-((3S,4S)-3,4-Bis(((1S,2R)-2-phenylcyclopropyl)carbamoyl)pyrrolidine-1-carbonyl)benzoyl)-4-(((1S,2R)-2-phenyl-cyclopropyl)carbamoyl)pyrrolidine-3-carboxamido)-dodecyl 4-(tert-butoxy)benzoate]
Emax (TLR1/TLR2 [1]): < 50%
EC50 (TLR1/TLR2 [1]): 27 nM
Emax (TLR1/TLR2 [2]): 150%
EC50 (TLR1/TLR2 [2]): 540 nM

SMILES: CC(C)(C)OC(=O)c1ccc(C(=O)OCCCCCCCCCCCCNC(=O)[C@@H]2CN(C(=O)c3ccc(C(=O)N4C[C@@H](C(=O)N[C@H]5C[C@@H]5c5ccccc5)[C@H](C(=O)N[C@H]5C[C@@H]5c5ccccc5)C4)cc3)C[C@H]2C(=O)N[C@H]2C[C@@H]2c2ccccc2)cc1 [Compound 77, 12-((3S,4S)-1-(4-((3S,4S)-3,4-Bis(((1S,2R)-2-phenylcyclopropyl)carbamoyl)pyrrolidine-1-carbonyl)benzoyl)-4-(((1S,2R)-2-phenyl-cyclopropyl)carbamoyl)pyrrolidine-3-carboxamido)-dodecyl tert-butyl terephthalate]
Emax (TLR1/TLR2 [1]): 90%
EC50 (TLR1/TLR2 [1]): 165 nM
Emax (TLR1/TLR2 [2]): 190%
EC50 (TLR1/TLR2 [2]): 785 nM

SMILES: O=C(O)c1ccc(C(=O)OCCCCCCCCCCCCNC(=O)[C@@H]2CN(C(=O)c3ccc(C(=O)N4C[C@@H](C(=O)N[C@H]5C[C@@H]5c5ccccc5)[C@H](C(=O)N[C@H]5C[C@@H]5c5ccccc5)C4)cc3)C[C@H]2C(=O)N[C@H]2C[C@@H]2c2ccccc2)cc1 [Compound 78, 4-(((12-((3S,4S)-1-(4-((3S,4S)-3,4-Bis(((1S,2R)-2-phenylcyclopropyl)carbamoyl)pyrrolidine-1-carbonyl)benzoyl)-4-(((1S,2R)-2-phenylcyclopropyl)-carbamoyl)pyrrolidine-3-carboxamido)-dodecyl)oxy)carbonyl)benzoic acid]
Emax (TLR1/TLR2 [1]): 100%
EC50 (TLR1/TLR2 [1]): 0.69 nM
Emax (TLR1/TLR2 [2]): 120%
EC50 (TLR1/TLR2 [2]): 2.1 nM

SMILES: CC(C)(C)OC(=O)c1ccc(C(=O)NCC(=O)OCCCCCCCCCCCCNC(=O)[C@@H]2CN(C(=O)c3ccc(C(=O)N4C[C@@H](C(=O)N[C@H]5C[C@@H]5c5ccccc5)[C@H](C(=O)N[C@H]5C[C@@H]5c5ccccc5)C4)cc3)C[C@H]2C(=O)N[C@H]2C[C@@H]2c2ccccc2)cc1 [Compound 79, tert-Butyl 4-((2-((12-((3S,4S)-1-(4-((3S,4S)-3,4-bis-(((1S,2R)-2-phenylcyclopropyl)carbamoyl)-pyrrolidine-1-carbonyl)benzoyl)-4-(((1S,2R)-2-phenylcyclopropyl)-carbamoyl)pyrrolidine-3-carboxamido)dodecyl)oxy)-2-oxoethyl)carbamoyl)benzoate]
Emax (TLR1/TLR2 [1]): 100%
EC50 (TLR1/TLR2 [1]): 6.6 nM
Emax (TLR1/TLR2 [2]): 130%
EC50 (TLR1/TLR2 [2]): 465 nM

SMILES: O=C(CNC(=O)c1ccc(C(=O)O)cc1)OCCCCCCCCCCCCNC(=O)[C@@H]1CN(C(=O)c2ccc(C(=O)N3C[C@@H](C(=O)N[C@H]4C[C@@H]4c4ccccc4)[C@H](C(=O)N[C@H]4C[C@@H]4c4ccccc4)C3)cc2)C[C@H]1C(=O)N[C@H]1C[C@@H]1c1ccccc1 [Compound 80, 4-((2-((12-((3S,4S)-1-(4-((3S,4S)-3,4-Bis(((1S,2R)-2-phenylcyclopropyl)carbamoyl)pyrrolidine-1-carbonyl)-benzoyl)-4-(((1S,2R)-2-phenylcyclopropyl)carbamoyl)-pyrrolidine-3-carboxamido)-dodecyl)oxy)-2-oxoethyl)carbamoyl)benzoic acid]
Emax (TLR1/TLR2 [1]): 100%
EC50 (TLR1/TLR2 [1]): 0.17 nM
Emax (TLR1/TLR2 [2]): 60%
EC50 (TLR1/TLR2 [2]): 5 nM

SMILES: CC(C)(C)OC(=O)/C=C/C(=O)NCC(=O)OCCCCCCCCCCCCNC(=O)[C@@H]1CN(C(=O)c2ccc(C(=O)N3C[C@@H](C(=O)N[C@H]4C[C@@H]4c4ccccc4)[C@H](C(=O)N[C@H]4C[C@@H]4c4ccccc4)C3)cc2)C[C@H]1C(=O)N[C@H]1C[C@@H]1c1ccccc1 [Compound 81, (E)-tert-Butyl 4-((2-((12-((3S,4S)-1-(4-((3S,4S)-3,4-bis(((1S,2R)-2-phenylcyclopropyl)carbamoyl)-pyrrolidine-1-carbonyl)benzoyl)-4-(((1S,2R)-2-phenylcyclopropyl)carbamoyl)pyrrolidine-3-carboxamido)dodecyl)oxy)-2-oxoethyl)amino)-4-oxobut-2-enoate]
Emax (TLR1/TLR2 [1]): 90%
EC50 (TLR1/TLR2 [1]): 2 nM
Emax (TLR1/TLR2 [2]): 110%
EC50 (TLR1/TLR2 [2]): 62 nM

SMILES: O=C(O)/C=C/C(=O)NCC(=O)OCCCCCCCCCCCCNC(=O)[C@@H]1CN(C(=O)c2ccc(C(=O)N3C[C@@H](C(=O)N[C@H]4C[C@@H]4c4ccccc4)[C@H](C(=O)N[C@H]4C[C@@H]4c4ccccc4)C3)cc2)C[C@H]1C(=O)N[C@H]1C[C@@H]1c1ccccc1 [Compound 82, (E)-4-((2-((12-((3S,4S)-1-(4-((3S,4S)-3,4-Bis(((1S,2R)-2-phenylcyclopropyl)carbamoyl)-pyrrolidine-1-carbonyl)benzoyl)-4-(((1S,2R)-2-phenylcyclopropyl)carbamoyl)pyrrolidine-3-carboxamido)dodecyl)oxy)-2-oxoethyl)amino)-4-oxobut-2-enoic acid]
Emax (TLR1/TLR2 [1]): 100%
EC50 (TLR1/TLR2 [1]): 0.32 nM
Emax (TLR1/TLR2 [2]): 60%
EC50 (TLR1/TLR2 [2]): 7 nM

Further lines, results first:

Emax (TLR1/TLR2 [1]): 110%
EC50 (TLR1/TLR2 [1]): 0.54 nM
Emax (TLR1/TLR2 [2]): 400%
EC50 (TLR1/TLR2 [2]): 16 nM
SMILES: CC(C)(C)OC(=O)C(=O)NCC(=O)OCCCCCCCCCCCCNC(=O)[C@@H]1CN(C(=O)c2ccc(C(=O)N3C[C@@H](C(=O)N[C@H]4C[C@@H]4c4ccccc4)[C@H](C(=O)N[C@H]4C[C@@H]4c4ccccc4)C3)cc2)C[C@H]1C(=O)N[C@H]1C[C@@H]1c1ccccc1 [Compound 83, tert-Butyl 2-((2-((12-((3S,4S)-1-(4-((3S,4S)-3,4-bis(((1S,2R)-2-phenylcyclopropyl)carbamoyl)-pyrrolidine-1-carbonyl)benzoyl)-4-(((1S,2R)-2-phenylcyclopropyl)carbamoyl)pyrrolidine-3-carboxamido)dodecyl)oxy)-2-oxoethyl)amino)-2-oxoacetate]

Emax (TLR1/TLR2 [1]): 120%
EC50 (TLR1/TLR2 [1]): 0.23 nM
Emax (TLR1/TLR2 [2]): 250%
EC50 (TLR1/TLR2 [2]): 6.7 nM
SMILES: O=C(CNC(=O)C(=O)O)OCCCCCCCCCCCCNC(=O)[C@@H]1CN(C(=O)c2ccc(C(=O)N3C[C@@H](C(=O)N[C@H]4C[C@@H]4c4ccccc4)[C@H](C(=O)N[C@H]4C[C@@H]4c4ccccc4)C3)cc2)C[C@H]1C(=O)N[C@H]1C[C@@H]1c1ccccc1 [Compound 84, 2-((2-((12-((3S,4S)-1-(4-((3S,4S)-3,4-Bis(((1S,2R)-2-phenylcyclopropyl)carbamoyl)pyrrolidine-1-carbonyl)benzoyl)-4-(((1S,2R)-2-phenylcyclopropyl)carbamoyl)pyrrolidine-3-carboxamido)-dodecyl)oxy)-2-oxoethyl)amino)-2-oxoacetic acid]

Emax (TLR1/TLR2 [1]): 110%
EC50 (TLR1/TLR2 [1]): 13.4 nM
Emax (TLR1/TLR2 [2]): 160%
EC50 (TLR1/TLR2 [2]): 36 nM
SMILES: CC(C)(C)OC(=O)c1ccc(C(=O)NCCOCCCCCCCCCCCCNC(=O)[C@@H]2CN(C(=O)c3ccc(C(=O)N4C[C@@H](C(=O)N[C@H]5C[C@@H]5c5ccccc5)[C@H](C(=O)N[C@H]5C[C@@H]5c5ccccc5)C4)cc3)C[C@H]2C(=O)N[C@H]2C[C@@H]2c2ccccc2)cc1 [Compound 85, tert-Butyl 4-((2-((12-((3S,4S)-1-(4-((3S,4S)-3,4-bis-(((1S,2R)-2-phenylcyclopropyl)carbamoyl)-pyrrolidine-1-carbonyl)benzoyl)-4-(((1S,2R)-2-phenylcyclopropyl)-carbamoyl)pyrrolidine-3-carboxamido)dodecyl)-oxy)ethyl)carbamoyl)benzoate]

Emax (TLR1/TLR2 [1]): 100%
EC50 (TLR1/TLR2 [1]): 2.9 nM
Emax (TLR1/TLR2 [2]): 50%
EC50 (TLR1/TLR2 [2]): 49 nM
SMILES: O=C(O)c1ccc(C(=O)NCCOCCCCCCCCCCCCNC(=O)[C@@H]2CN(C(=O)c3ccc(C(=O)N4C[C@@H](C(=O)N[C@H]5C[C@@H]5c5ccccc5)[C@H](C(=O)N[C@H]5C[C@@H]5c5ccccc5)C4)cc3)C[C@H]2C(=O)N[C@H]2C[C@@H]2c2ccccc2)cc1 [Compound 86, 4-((2-((12-((3S,4S)-1-(4-((3S,4S)-3,4-Bis(((1S,2R)-2-phenylcyclopropyl)carbamoyl)pyrrolidine-1-carbonyl)benzoyl)-4-(((1S,2R)-2-phenylcyclopropyl)-carbamoyl)pyrrolidine-3-carboxamido)dodecyl)-oxy)ethyl)carbamoyl)benzoic acid]
